According to PMC5618690, “Structural and functional analysis of two small leucine-rich repeat proteoglycans, fibromodulin and chondroadherin” (Matrix Biology, 2017):
pKd: −log10 of the molar value.

Key:
chondroadherin = target: T1, chondroadherin (Homo sapiens, UniProt O15335); test: Binding of peptide AB31 to chondroadherin in solution by size exclusion chromatography
T1 construct: The construct comprises residues 23–359 of Uniprot O15335 and is untagged; made in house; host or cells: HEK293 c18 cells
T1 sequence (O15335 23-359): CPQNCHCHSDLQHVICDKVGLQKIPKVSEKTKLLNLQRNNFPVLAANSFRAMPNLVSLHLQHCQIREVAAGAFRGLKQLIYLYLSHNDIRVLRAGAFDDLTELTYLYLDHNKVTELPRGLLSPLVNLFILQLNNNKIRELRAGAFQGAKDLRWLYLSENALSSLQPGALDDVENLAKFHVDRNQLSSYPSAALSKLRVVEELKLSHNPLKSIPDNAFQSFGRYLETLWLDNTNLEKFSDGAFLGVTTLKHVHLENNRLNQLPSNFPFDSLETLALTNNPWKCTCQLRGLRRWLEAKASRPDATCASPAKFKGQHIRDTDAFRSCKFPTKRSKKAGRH
Procedure: The natural affinity of chondroadherin for Ni^2 + affinity resin was used to purify the untagged protein. The filtered serum-free cell culture supernatant was adjusted to a final concentration of 20 mM Na-HEPES (pH 7.5) and loaded onto a 5-ml HisTrap Excel column using an Äkta Purifier. Elution was performed with an imidazole gradient in buffer A. The chondroadherin protein was further purified by size exclusion chromatography as described for fibromodulin. Chondroadherin and the collagen-like peptide AB31 were mixed in a 1:2 molar ratio and incubated for 15 min at room temperature. The chondroadherin-AB31 complex was purified by size exclusion chromatography in buffer A.

[1] = ref [26], cited from earlier work
Description: Fig. 3 Concave face interactions in SLRP crystal structures. For each structure, two orthogonal views are shown. […] The experimentally determined mass of fibromodulin was 56.7 kDa (calculated: 41.5 kDa + 4 N-linked glycans) and that of chondroadherin was 39.6 kDa (calculated: 38.6 kDa). In comparison, using the same SEC-MALS setup, we previously determined an experimental mass of 83.5 kDa for the glycosylated decorin core protein (calculated: 36.2 kDa + 4 N-linked glycans).

decorin dimer = conditions: ref [26]; read-out: dissociation constant of decorin dimer; cited from earlier work
Description: We used size exclusion chromatography with multi-angle light scattering (SEC-MALS) to determine the oligomeric states of fibromodulin and chondroadherin in solution (Fig. 4). The experimentally determined mass of fibromodulin was 56.7 kDa (calculated: 41.5 kDa + 4 N-linked glycans) and that of chondroadherin was 39.6 kDa (calculated: 38.6 kDa). In comparison, using the same SEC-MALS setup, we previously determined an experimental mass of 83.5 kDa for the glycosylated decorin core protein (calculated: 36.2 kDa + 4 N-linked glycans).

| Substance | complex formation with chondroadherin in solution (chondroadherin; SEC, Superdex 75, AB31:chondroadherin 2:1 molar ratio, 15 min, room temperature, buffer A (20 mM HEPES pH 7.5, 150 mM NaCl, 2 mM CaCl2)) | binding site quality of shared sequence (chondroadherin; sequence shared by II-26 and AB31) | oligomeric state in solution (literature) ([1]; not SEC-MALS of this work, [32], [33]) | experimental mass of glycosylated decorin core protein ([1]; same SEC-MALS setup, previously determined) [kDa] | pKd (decorin dimer) |
| --- | --- | --- | --- | --- | --- |
| GAOGPSGFQGLOGPOGPO | forms a stable complex with chondroadherin in solution | high-affinity binding site for chondroadherin |  |  |  |
| decorin |  |  | form stable dimers in solution | 83.5 | 5.85 |
